Measured values: ChEMBL document CHEMBL1201862, “PubChem BioAssay data set” (2004)
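Following 48 hours of exposure in 96-well plates, responses at five concentrations were used to interpolate endpoints linearly. GI50 marks 50% less growth.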 Activity calls are given as the source filed them. No stated cut-off is given here; in the data, active = GI50 up to about 1.1 µM and inactive = higher.

Columns and labels:
Assay in all cases: DTP human tumour cell line panel, 48 h
SK-MEL-2 = test system: SK-MEL-2
UO-31 = test system: UO-31
EKVX = test system: EKVX
RXF 393 = test system: RXF 393
SR = test system: SR
SN12C = test system: SN12C
SF-295 = test system: SF-295
K562 = test system: K562
SK-OV-3 = test system: SK-OV-3
IGROV-1 = test system: IGROV-1
MDA-MB-231 = test system: MDA-MB-231
T47D = test system: T47D
SF-539 = test system: SF-539
HOP-92 = test system: HOP-92
NCI-H522 = test system: NCI-H522
BT-549 = test system: BT-549
OVCAR-3 = test system: OVCAR-3
KM12 = test system: KM12
SF-268 = test system: SF-268
RPMI-8226 = test system: RPMI-8226
HOP-62 = test system: HOP-62
HT-29 = test system: HT-29
OVCAR-5 = test system: OVCAR-5
NCI-H226 = test system: NCI-H226
COLO 205 = test system: COLO 205
SW-620 = test system: SW-620
786-0 = test system: 786-0
Malme-3M = test system: Malme-3M
MDA-N = test system: MDA-N
HL-60 = test system: HL-60
DU-145 = test system: DU-145
NCI-H23 = test system: NCI-H23
UACC-62 = test system: UACC-62
Hs-578T = test system: Hs-578T
NCI/ADR-RES = test system: NCI/ADR-RES
SK-MEL-5 = test system: SK-MEL-5
UACC-257 = test system: UACC-257
CCRF-CEM = test system: CCRF-CEM
SNB-19 = test system: SNB-19
ACHN = test system: ACHN
OVCAR-8 = test system: OVCAR-8
SNB-75 = test system: SNB-75
MCF7 = test system: MCF7
A549 = test system: A549
U-251 = test system: U-251
MDA-MB-435 = test system: MDA-MB-435
PC-3 = test system: PC-3
HCT-116 = test system: HCT-116
M14 = test system: M14
MOLT-4 = test system: MOLT-4
OVCAR-4 = test system: OVCAR-4
NCI-H460 = test system: NCI-H460

Measured: GI50

COC(=O)Cc1cc(O)c(C/C=C(\C)CC/C=C(\C)C(O)C(=O)C=C(C)C)cc1O (configuration not stated)
inactive: SK-MEL-2 24.6 µM | UO-31 21.6 µM | EKVX 23.6 µM | RXF 393 14.5 µM | SR 15.6 µM | SN12C 22.4 µM | SF-295 24.2 µM | K562 15.6 µM | SK-OV-3 29.7 µM | IGROV-1 23.3 µM | MDA-MB-231 34.7 µM | T47D 16.5 µM | SF-539 20.3 µM | HOP-92 20.4 µM | NCI-H522 21.1 µM | BT-549 25.6 µM | OVCAR-3 19.4 µM | KM12 20.7 µM | SF-268 19.7 µM | RPMI-8226 26.7 µM | HOP-62 19.6 µM | HT-29 27.4 µM | OVCAR-5 33.7 µM | NCI-H226 26.3 µM | COLO 205 24.8 µM | SW-620 31.3 µM | 786-0 38.6 µM | Malme-3M 17.3 µM | MDA-N 35.5 µM | HL-60 2.76 µM | DU-145 45.4 µM | NCI-H23 39.4 µM | UACC-62 19.9 µM | Hs-578T 41 µM | NCI/ADR-RES 22.5 µM | SK-MEL-5 17.1 µM | UACC-257 30.7 µM | CCRF-CEM 2.93 µM | SNB-19 32 µM | ACHN 24.9 µM | OVCAR-8 23.2 µM | SNB-75 18.2 µM | MCF7 32.1 µM | A549 25.6 µM | U-251 18.7 µM | MDA-MB-435 20.6 µM | PC-3 21.9 µM | HCT-116 17.3 µM | M14 26.3 µM | MOLT-4 14.5 µM | OVCAR-4 40.4 µM | NCI-H460 20.6 µM
